Experimental data: the NIST ThermoML archive (doi:10.1007/s10765-011-1149-x)
Numbers after ± are expanded uncertainties.

Test: xn = mol fraction of the nth substance listed
Details: 101 kPa, Liquid, Vibrating tube method

With `Cc1cc(C)nc(C)c1` [2,4,6-trimethylpyridine] + CO the mass density (276.15 K, x1 = 0.0204) was 816.99 ± 0.14 kg/m3, the mass density (276.15 K, x1 = 0.0511) was 830.47 ± 0.14 kg/m3 and the mass density (276.15 K, x1 = 0.0997) was 848.99 ± 0.14 kg/m3. For the same compound, the mass density (276.15 K, x1 = 0.194) was 875.69 ± 0.16 kg/m3, the mass density (276.15 K, x1 = 0.2957) was 895.63 ± 0.15 kg/m3 and the mass density (276.15 K, x1 = 0.3884) was 907.79 ± 0.14 kg/m3. The mass density (276.15 K, x1 = 0.489) was 916.36 ± 0.15 kg/m3, the mass density (276.15 K, x1 = 0.5852) was 921.51 ± 0.15 kg/m3 and the mass density (276.15 K, x1 = 0.6949) was 925.01 ± 0.17 kg/m3. The mass density (276.15 K, x1 = 0.7971) was 926.99 ± 0.19 kg/m3, the mass density (276.15 K, x1 = 0.8889) was 928.16 ± 0.21 kg/m3 and the mass density (276.15 K, x1 = 1) was 928.45 ± 0.23 kg/m3. For the same compound, the mass density (277.15 K, x1 = 0.0204) was 816.06 ± 0.15 kg/m3, the mass density (277.15 K, x1 = 0.0511) was 829.54 ± 0.15 kg/m3 and the mass density (277.15 K, x1 = 0.0997) was 848.07 ± 0.18 kg/m3. For the same compound, the mass density (277.15 K, x1 = 0.194) was 874.77 ± 0.21 kg/m3, the mass density (277.15 K, x1 = 0.2957) was 894.71 ± 0.19 kg/m3 and the mass density (277.15 K, x1 = 0.3884) was 906.88 ± 0.17 kg/m3. The mass density (277.15 K, x1 = 0.489) was 915.47 ± 0.17 kg/m3, the mass density (277.15 K, x1 = 0.5852) was 920.64 ± 0.17 kg/m3 and the mass density (277.15 K, x1 = 0.6949) was 924.15 ± 0.18 kg/m3. It also gave a mass density (277.15 K, x1 = 0.7971) of 926.14 ± 0.19 kg/m3, a mass density (277.15 K, x1 = 0.8889) of 927.31 ± 0.21 kg/m3 and a mass density (277.15 K, x1 = 1) of 927.61 ± 0.23 kg/m3. For the same compound, the mass density (283.14 K, x1 = 0.2957) was 889.2 ± 0.15 kg/m3, the mass density (283.14 K, x1 = 0.3884) was 901.42 ± 0.15 kg/m3 and the mass density (283.14 K, x1 = 0.5852) was 915.35 ± 0.16 kg/m3. It also gave a mass density (283.14 K, x1 = 0.7971) of 921.01 ± 0.19 kg/m3, a mass density (283.15 K, x1 = 0.0204) of 810.47 ± 0.15 kg/m3 and a mass density (283.15 K, x1 = 0.0511) of 823.96 ± 0.14 kg/m3. It also gave a mass density (283.15 K, x1 = 0.0997) of 842.5 ± 0.14 kg/m3, a mass density (283.15 K, x1 = 0.194) of 869.23 ± 0.14 kg/m3 and a mass density (283.15 K, x1 = 0.489) of 910.1 ± 0.15 kg/m3. It also gave a mass density (283.15 K, x1 = 0.6949) of 918.95 ± 0.17 kg/m3, a mass density (283.15 K, x1 = 0.8889) of 922.22 ± 0.21 kg/m3 and a mass density (283.15 K, x1 = 1) of 922.54 ± 0.23 kg/m3. For the same compound, the mass density (288.15 K, x1 = 0.0204) was 805.79 ± 0.15 kg/m3, the mass density (288.15 K, x1 = 0.0511) was 819.3 ± 0.15 kg/m3 and the mass density (288.15 K, x1 = 0.0997) was 837.86 ± 0.14 kg/m3. The mass density (288.15 K, x1 = 0.194) was 864.59 ± 0.15 kg/m3, the mass density (288.15 K, x1 = 0.2957) was 884.59 ± 0.15 kg/m3 and the mass density (288.15 K, x1 = 0.3884) was 896.86 ± 0.15 kg/m3. The mass density (288.15 K, x1 = 0.489) was 905.6 ± 0.15 kg/m3, the mass density (288.15 K, x1 = 0.5852) was 910.93 ± 0.16 kg/m3 and the mass density (288.15 K, x1 = 0.6949) was 914.61 ± 0.17 kg/m3. For the same compound, the mass density (288.15 K, x1 = 0.7971) was 916.72 ± 0.19 kg/m3, the mass density (288.15 K, x1 = 0.8889) was 917.96 ± 0.21 kg/m3 and the mass density (288.15 K, x1 = 1) was 918.32 ± 0.24 kg/m3. It also gave a mass density (293.14 K, x1 = 0.0997) of 833.2 ± 0.15 kg/m3, a mass density (293.14 K, x1 = 1) of 914.08 ± 0.24 kg/m3 and a mass density (293.15 K, x1 = 0.0204) of 801.11 ± 0.15 kg/m3. It also gave a mass density (293.15 K, x1 = 0.0511) of 814.63 ± 0.15 kg/m3, a mass density (293.15 K, x1 = 0.194) of 859.94 ± 0.15 kg/m3 and a mass density (293.15 K, x1 = 0.2957) of 879.97 ± 0.15 kg/m3. For the same compound, the mass density (293.15 K, x1 = 0.3884) was 892.28 ± 0.15 kg/m3, the mass density (293.15 K, x1 = 0.489) was 901.1 ± 0.16 kg/m3 and the mass density (293.15 K, x1 = 0.5852) was 906.5 ± 0.16 kg/m3. It also gave a mass density (293.15 K, x1 = 0.6949) of 910.25 ± 0.18 kg/m3, a mass density (293.15 K, x1 = 0.7971) of 912.41 ± 0.19 kg/m3 and a mass density (293.15 K, x1 = 0.8889) of 913.69 ± 0.21 kg/m3. It also gave a mass density (298.14 K, x1 = 0.0511) of 809.94 ± 0.15 kg/m3, a mass density (298.14 K, x1 = 0.6949) of 905.88 ± 0.18 kg/m3 and a mass density (298.14 K, x1 = 0.8889) of 909.41 ± 0.21 kg/m3. It also gave a mass density (298.15 K, x1 = 0.0204) of 796.41 ± 0.15 kg/m3, a mass density (298.15 K, x1 = 0.0997) of 828.52 ± 0.15 kg/m3 and a mass density (298.15 K, x1 = 0.194) of 855.28 ± 0.15 kg/m3. It also gave a mass density (298.15 K, x1 = 0.2957) of 875.33 ± 0.15 kg/m3, a mass density (298.15 K, x1 = 0.3884) of 887.69 ± 0.15 kg/m3 and a mass density (298.15 K, x1 = 0.489) of 896.57 ± 0.16 kg/m3. The mass density (298.15 K, x1 = 0.5852) was 902.05 ± 0.16 kg/m3, the mass density (298.15 K, x1 = 0.7971) was 908.1 ± 0.19 kg/m3 and the mass density (298.15 K, x1 = 1) was 909.84 ± 0.24 kg/m3. It also gave a mass density (303.14 K, x1 = 0.7971) of 903.77 ± 0.19 kg/m3, a mass density (303.14 K, x1 = 0.8889) of 905.12 ± 0.21 kg/m3 and a mass density (303.15 K, x1 = 0.0204) of 791.7 ± 0.15 kg/m3. It also gave a mass density (303.15 K, x1 = 0.0511) of 805.24 ± 0.15 kg/m3, a mass density (303.15 K, x1 = 0.0997) of 823.83 ± 0.15 kg/m3 and a mass density (303.15 K, x1 = 0.194) of 850.6 ± 0.15 kg/m3. It also gave a mass density (303.15 K, x1 = 0.2957) of 870.67 ± 0.15 kg/m3, a mass density (303.15 K, x1 = 0.3884) of 883.08 ± 0.15 kg/m3 and a mass density (303.15 K, x1 = 0.489) of 892.04 ± 0.16 kg/m3. It also gave a mass density (303.15 K, x1 = 0.5852) of 897.58 ± 0.16 kg/m3, a mass density (303.15 K, x1 = 0.6949) of 901.49 ± 0.18 kg/m3 and a mass density (303.15 K, x1 = 1) of 905.58 ± 0.24 kg/m3. It also gave a mass density (308.14 K, x1 = 0.0997) of 819.11 ± 0.15 kg/m3, a mass density (308.14 K, x1 = 0.194) of 845.89 ± 0.15 kg/m3 and a mass density (308.14 K, x1 = 0.3884) of 878.45 ± 0.15 kg/m3. For the same compound, the mass density (308.14 K, x1 = 0.489) was 887.48 ± 0.16 kg/m3, the mass density (308.14 K, x1 = 0.5852) was 893.1 ± 0.16 kg/m3 and the mass density (308.14 K, x1 = 0.6949) was 897.08 ± 0.18 kg/m3. It also gave a mass density (308.14 K, x1 = 0.7971) of 899.42 ± 0.19 kg/m3, a mass density (308.15 K, x1 = 0.0204) of 786.96 ± 0.15 kg/m3 and a mass density (308.15 K, x1 = 0.0511) of 800.51 ± 0.15 kg/m3. It also gave a mass density (308.15 K, x1 = 0.2957) of 865.99 ± 0.15 kg/m3, a mass density (308.15 K, x1 = 0.8889) of 900.82 ± 0.21 kg/m3 and a mass density (308.15 K, x1 = 1) of 901.31 ± 0.24 kg/m3. The mass density (313.14 K, x1 = 0.0204) was 782.2 ± 0.15 kg/m3, the mass density (313.14 K, x1 = 0.0511) was 795.75 ± 0.15 kg/m3 and the mass density (313.14 K, x1 = 0.0997) was 814.36 ± 0.16 kg/m3. The mass density (313.14 K, x1 = 0.489) was 882.9 ± 0.16 kg/m3, the mass density (313.14 K, x1 = 0.6949) was 892.65 ± 0.18 kg/m3 and the mass density (313.15 K, x1 = 0.194) was 841.15 ± 0.16 kg/m3. For the same compound, the mass density (313.15 K, x1 = 0.2957) was 861.28 ± 0.16 kg/m3, the mass density (313.15 K, x1 = 0.3884) was 873.79 ± 0.16 kg/m3 and the mass density (313.15 K, x1 = 0.5852) was 888.59 ± 0.17 kg/m3. It also gave a mass density (313.15 K, x1 = 0.7971) of 895.05 ± 0.2 kg/m3, a mass density (313.15 K, x1 = 0.8889) of 896.49 ± 0.21 kg/m3 and a mass density (313.15 K, x1 = 1) of 897.03 ± 0.24 kg/m3.
